Laboratory results as given in US20260070895A1, “CRYSTALLINE FORMS” (QUIMATRYX, S.L., priority 2022, published 2026).

Tests used:
[1] = Photostability in solution (THF and water), HPLC; assay type: physicochemical; settings: in solution (THF and water), sealed under nitrogen in amber glass bottles; for degradation (in words): up to 171 hours
Protocol: (§1) The method for determining purity by HPLC—used throughout these examples—used the following parameters:
(§2) The photostability of novel crystalline forms of QTX125 was assessed at solid state and in solution. Where ‘forced illumination’ conditions were used, samples were illuminated at 12 Klux/hour and 2.8 UV W/m^2/hour. Samples were stored at a temperature of 30° C. Following incubation, the chemical purity of QTX125 was measured by HPLC.
(§3) The following index is provided to aid navigation of the data presented in Tables 3.1.1 to 3.3.6: • 3.1.x—Assessment of the photostability of QTX125 Form 2. • 3.2.x—Assessment of the photostability of amorphous QTX125. • 3.3.x—Assessment of the photostability of the QTX125 1:2 L-Lysine adduct. • 3.x.1—Samples (at solid state) stored in unsealed clear glass bottles, subject to forced illumination. • 3.x.2—Samples (at solid state) sealed under nitrogen in clear glass bottles, subject to forced illumination. • 3.x.3—Samples (at solid state) sealed under nitrogen in amber glass bottles, illuminated under ambient laboratory conditions • 3.x.4—Samples (at solid state) sealed under nitrogen in amber glass bottles, subject to forced illumination. • 3.x.5—Samples (in solution) sealed under nitrogen in amber glass bottles, illuminated under ambient laboratory conditions. • 3.x.6—Samples (in solution) sealed under nitrogen in amber glass bottles, subject to forced illumination.

[2] = Photostability at solid state (chemical purity by HPLC after illumination); assay type: physicochemical; settings: solid-state; for degradation (in words): up to 171 hours
Protocol: as §1, §2, §3

[3] = ambient laboratory conditions, 0 hours
[4] = ambient laboratory conditions, 3 hours
[5] = ambient laboratory conditions, 50 hours
[6] = ambient laboratory conditions, 171 hours
[7] = ambient laboratory conditions, 171 hours, listed as Amorphous
[8] = forced illumination, 171 hours, listed as Amorphous
[9] = sealed under nitrogen in amber glass bottles, ambient laboratory conditions, 0 hours
[10] = sealed under nitrogen in amber glass bottles, ambient laboratory conditions, 3 hours
[11] = sealed under nitrogen in amber glass bottles, ambient laboratory conditions, 50 hours
[12] = sealed under nitrogen in amber glass bottles, ambient laboratory conditions, 171 hours
[13] = sealed under nitrogen in amber glass bottles, ambient laboratory conditions, 171 hours, listed as Amorphous
[14] = sealed under nitrogen in amber glass bottles, forced illumination, 0 hours
[15] = sealed under nitrogen in amber glass bottles, forced illumination, 3 hours
[16] = sealed under nitrogen in amber glass bottles, forced illumination, 50 hours
[17] = sealed under nitrogen in amber glass bottles, forced illumination, 171 hours
[18] = sealed under nitrogen in amber glass bottles, forced illumination, 171 hours, listed as Amorphous
[19] = sealed under nitrogen in clear glass bottles, forced illumination
[20] = sealed under nitrogen in clear glass bottles, forced illumination, 0 hours
[21] = sealed under nitrogen in clear glass bottles, forced illumination, 3 hours
[22] = sealed under nitrogen in clear glass bottles, forced illumination, 50 hours
[23] = sealed under nitrogen in clear glass bottles, forced illumination, 171 hours
[24] = unsealed clear glass bottles, forced illumination
[25] = unsealed clear glass bottles, forced illumination, 0 hours
[26] = unsealed clear glass bottles, forced illumination, 3 hours
[27] = unsealed clear glass bottles, forced illumination, 50 hours
[28] = unsealed clear glass bottles, forced illumination, 171 hours

O=C(NO)c1ccc(CNC(=O)c2[nH]c(-c3ccc(O)cc3)cc2-c2ccoc2)cc1 [amorphous QTX125, 3-(3-Furyl)-N-{4-[(hydroxyamino)carbonyl]benzyl}-5-(4-hydroxyphenyl)-1H-pyrrole-2-carboxamide]
HPLC peak area, QTX125 RRT 1.00 [1, 3]: 96.74% | HPLC peak area, RRT 1.04 [1, 3]: 1.32% | HPLC peak area, RRT 1.12 [1, 3]: 0.35% | HPLC peak area, QTX125 RRT 1.00 [1, 4]: 92.10% | HPLC peak area, RRT 1.04 [1, 4]: 0.94% | HPLC peak area, RRT 1.12 [1, 4]: 0.48% | HPLC peak area, QTX125 RRT 1.00 [1, 5]: 95.89% | HPLC peak area, RRT 1.04 [1, 5]: 1.03% | HPLC peak area, RRT 1.12 [1, 5]: 0.54% | HPLC peak area, QTX125 RRT 1.00 [1, 6]: 91.98% | HPLC peak area, RRT 1.04 [1, 6]: 2.30% | HPLC peak area, RRT 1.12 [1, 6]: 1.14% | HPLC peak area, QTX125 RRT 1.00 [1, 7]: 91.98% | HPLC peak area, RRT 1.04 [1, 7]: 2.30% | HPLC peak area, RRT 1.12 [1, 7]: 1.14% | degradation (in words) ([1]; ambient laboratory conditions): degrades | HPLC peak area, QTX125 RRT 1.00 ([1]; forced illumination, 0 hours): 96.74% | HPLC peak area, RRT 1.04 ([1]; forced illumination, 0 hours): 1.32% | HPLC peak area, RRT 1.12 ([1]; forced illumination, 0 hours): 0.35% | HPLC peak area, QTX125 RRT 1.00 ([1]; forced illumination, 3 hours): 96.31% | HPLC peak area, RRT 1.04 ([1]; forced illumination, 3 hours): 0.92% | HPLC peak area, RRT 1.12 ([1]; forced illumination, 3 hours): 0.46% | HPLC peak area, QTX125 RRT 1.00 ([1]; forced illumination, 50 hours): 94.55% | HPLC peak area, RRT 1.04 ([1]; forced illumination, 50 hours): 1.27% | HPLC peak area, RRT 1.12 ([1]; forced illumination, 50 hours): 0.55% | HPLC peak area, QTX125 RRT 1.00 ([1]; forced illumination, 171 hours): 87.29% | HPLC peak area, RRT 1.04 ([1]; forced illumination, 171 hours): 2.33% | HPLC peak area, RRT 1.12 ([1]; forced illumination, 171 hours): 1.03% | HPLC peak area, QTX125 RRT 1.00 [1, 8]: 87.29% | HPLC peak area, RRT 1.04 [1, 8]: 2.33% | HPLC peak area, RRT 1.12 [1, 8]: 1.03% | degradation (in words) ([1]; forced illumination): degrades | HPLC peak area, QTX125 RRT 1.00 [2, 9]: 96.74% | HPLC peak area, RRT 1.04 [2, 9]: 1.32% | HPLC peak area, RRT 1.12 [2, 9]: 0.35% | HPLC peak area, QTX125 RRT 1.00 [2, 10]: 96.75% | HPLC peak area, RRT 1.04 [2, 10]: 1.26% | HPLC peak area, RRT 1.12 [2, 10]: 0.36% | HPLC peak area, QTX125 RRT 1.00 [2, 11]: 96.61% | HPLC peak area, RRT 1.04 [2, 11]: 0.71% | HPLC peak area, RRT 1.12 [2, 11]: 0.39% | HPLC peak area, QTX125 RRT 1.00 [2, 12]: 96.16% | HPLC peak area, RRT 1.04 [2, 12]: 1.46% | HPLC peak area, RRT 1.12 [2, 12]: 0.39% | HPLC peak area, QTX125 RRT 1.00 [2, 13]: 96.16% | HPLC peak area, RRT 1.04 [2, 13]: 1.46% | degradation (in words) ([2]; sealed under nitrogen in amber glass bottles, ambient laboratory conditions): evidence of slight degradation | HPLC peak area, QTX125 RRT 1.00 [2, 14]: 96.74% | HPLC peak area, RRT 1.04 [2, 14]: 1.32% | HPLC peak area, RRT 1.12 [2, 14]: 0.35% | HPLC peak area, QTX125 RRT 1.00 [2, 15]: 96.94% | HPLC peak area, RRT 1.04 [2, 15]: 1.04% | HPLC peak area, RRT 1.12 [2, 15]: 0.35% | HPLC peak area, QTX125 RRT 1.00 [2, 16]: 96.12% | HPLC peak area, RRT 1.04 [2, 16]: 1.09% | HPLC peak area, RRT 1.12 [2, 16]: 0.38% | HPLC peak area, QTX125 RRT 1.00 [2, 17]: 94.43% | HPLC peak area, RRT 1.04 [2, 17]: 1.70% | HPLC peak area, RRT 1.12 [2, 17]: 0.47% | HPLC peak area, QTX125 RRT 1.00 [2, 18]: 94.43% | HPLC peak area, RRT 1.04 [2, 18]: 1.70% | HPLC peak area, RRT 1.12 [2, 18]: 0.47% | degradation (in words) ([2]; sealed under nitrogen in amber glass bottles, forced illumination): degrades slightly | colour change of the solid material [2, 19]: change in colour from off white/beige to brown | HPLC peak area, QTX125 RRT 1.00 [2, 20]: 96.74% | HPLC peak area, RRT 1.04 [2, 20]: 1.32% | HPLC peak area, RRT 1.12 [2, 20]: 0.35% | HPLC peak area, QTX125 RRT 1.00 [2, 21]: 95.97% | HPLC peak area, RRT 1.04 [2, 21]: 1.51% | HPLC peak area, RRT 1.12 [2, 21]: 0.38% | HPLC peak area, QTX125 RRT 1.00 [2, 22]: 89.64% | HPLC peak area, RRT 1.04 [2, 22]: 4.38% | HPLC peak area, RRT 1.12 [2, 22]: 0.60% | HPLC peak area, QTX125 RRT 1.00 [2, 23]: 84.46% | HPLC peak area, RRT 1.04 [2, 23]: 6.61% | HPLC peak area, RRT 1.12 [2, 23]: 0.90% | degradation (in words) [2, 19]: degrades under forced illumination to two principal components | colour change of the solid material [2, 24]: change in colour from off white/beige to brown | HPLC peak area, QTX125 RRT 1.00 [2, 25]: 96.74% | HPLC peak area, RRT 1.04 [2, 25]: 1.32% | HPLC peak area, RRT 1.12 [2, 25]: 0.35% | HPLC peak area, QTX125 RRT 1.00 [2, 26]: 95.81% | HPLC peak area, RRT 1.04 [2, 26]: 1.61% | HPLC peak area, RRT 1.12 [2, 26]: 0.39% | HPLC peak area, QTX125 RRT 1.00 [2, 27]: 88.70% | HPLC peak area, RRT 1.04 [2, 27]: 4.64% | HPLC peak area, RRT 1.12 [2, 27]: 0.63% | HPLC peak area, QTX125 RRT 1.00 [2, 28]: 83.01% | HPLC peak area, RRT 1.04 [2, 28]: 7.15% | HPLC peak area, RRT 1.12 [2, 28]: 0.90% | degradation (in words) [2, 24]: degrades under forced illumination to two principal components
